# Patent publication US9675590B2, “Methods and pharmaceutical compositions for the treatment of myelodysplastic syndromes” (INSERM (INSTITUT NATIONAL DE LA SANTÉ ET DE LA RECHERCHE …, priority 2014, dated 2017)
# Read-outs that look alike come from different tables or passages of the source.
# Key:
# [1] = system: CD36+ erythroid progenitors from cord blood; experiment: Toxicity of KPT on CD36+ erythroid progenitors with normal EPO; assay type: cell-based, human; conditions: cord blood CD36+ at day 6 (D6) of culture; 33 nM, 100 nM, 333 nM and 1000 nM; normal concentrations of EPO; until 20 h of treatment
# Procedure: (§1) Umbilical cord blood units from normal full-term deliveries were obtained, after informed mother's consent, from the Obstetrics Unit of Hôpital Necker-Enfants Malades. CD36+ erythroid progenitors, generated from 7 days IL-6+IL3+SCF-cultured CD34 progenitors isolated from cord blood (Miltenyi CD34 Progenitor Cell Isolation Kit), were cultured in the presence of IL3+SCF+Epo in IMDM (Gibco cell culture) supplemented with 15% BIT 9500 (Stem Cell Technologies).
# CD36+ D6 = experiment: Cell death of CD36+ D6 cells during EPO starvation; assay type: cell-based, human; conditions: EPO starvation during 20 h
# Procedure: as §1
# HSP70 [2] = experiment: HSP70 nuclear retention in CD36+ D6 cells under EPO starvation; assay type: cell-based, human; conditions: CD36+ D6 from cord blood, after 20 h of treatment
# Procedure: as §1
# (§2) 5.10^4 cells were spin on slides, acetone fixated, hydrated with cold 1×PBS 1% BSA for 30 minutes, treated with formaldehyde for 15 min (Sigma), then with methanol (Prolabo) for 10 minutes at room temperature. Cells were then permeabilized with 1×PBS 0.2% triton X100 (Sigma) for 10 min at 4° C., washed and incubated in 10% BSA for 30 minutes. They were then sequentially incubated with antibodies diluted in 1×PBS 1% BSA 0.1% tween (Sigma). Nuclei were stained with DAPI and slides were examined with a confocal laser microscope (LSM 700 Carl Zeiss).
# HSP70 [3] = experiment: HSP70 nuclear localization in myelodysplastic syndrome CD36+ D8 cells; assay type: cell-based, human; conditions: 100 nM, after 72 h of treatment, compared to non treated cells
# Procedure: as §2
# CD36+ D8 cells = experiment: Erythroid maturation of CD36+ D8 cells (MGG observations); assay type: cell-based, human; conditions: 100 nM, 333 nM and 1000 nM, after 72 h of treatment, compared to non treated cells
# HSP70 [4] = conditions: erythroid precursor cells; cited from earlier work
SMILES,toxicity for CD36+ erythroid progenitors [1],decrease of cell death compared to the absence of KPT treatment (CD36+ D6; 100 nM),decrease of cell death compared to the absence of KPT treatment (CD36+ D6; 333 nM),HSP70 nuclear retention (HSP70 [2]),HSP70 nuclear localization (HSP70 [3]),maturation index (mature*100/polychromatic) (CD36+ D8 cells),number of mature cells (CD36+ D8 cells),HSP70 nuclear retention (HSP70 [4])
FC(F)(F)c1cc(-c2ncn(/C=C\c3nnco3)n2)cc(C(F)(F)F)c1 [KPT],not toxic,49%,39%,induces HSP70 nuclear retention,induces HSP70 nuclear localization,increases,increases the number of mature cells,–
CCC(=C/[C@H](C)C/C=C/C(C)=C/[C@@H](C)C(=O)[C@@H](C)[C@H](O)[C@@H](C)C/C(C)=C/C(=O)O)/C=C/[C@@H]1OC(=O)C=C[C@@H]1C [Leptomycin B],–,–,–,–,–,–,–,induces HSP70 nuclear retention
